Experimental data reported in US12186426B2, “Solid dosage form” (IX BIOPHARMA LTD, priority 2009, dated 2025).
“And” between values parts separate entries of the source, which are not always exact repeats. Identical values can stand only once.

Key:
[1] = Ketamine wafer safety and tolerability (Likert, Bond and Lader scales) in healthy volunteers; format: in vivo, human
Experimental: Safety assessments included scheduled adverse event (AE) probes, spontaneous AE reporting, routine laboratory investigations, 12-lead electrocardiograms (ECGs) and vital sign evaluation during a 24 hour period from start of dosing. A full physical examination was performed before the first dosing occasion and 24 hours after the second dosing occasion.
Local tolerability was assessed, by using Likert scales, at pre dose, 5, 10, 15, 30 and 45 minutes and one hour post dose administration. Modified Bond and Lader scales to assess sedation and altered perception, by using the three factors “alertness”, “contentedness” and “calmness”, were performed at pre dose, 30 minutes post dose and at hours 1, 1.5, 2, 2.5, 3, 4, 6, 8, 12, and 24 hours post dose administration.
The Bond and Lader scales comprise a total of 16 100-mm lines anchored at either end by antonyms. Participants marked their current subjective state between the antonyms on the line. Each line was scored as millimetres to the mark from the negative antonym. From the resultant scores, three measures derived by factor analysis were isolated. […]

[2] = Ketamine wafer pharmacokinetics and absolute bioavailability, crossover study in healthy volunteers; details: for extrapolated portion of the AUC, AUCextr: range over subjects; for time of first quantifiable plasma concentration: all subjects
[3] = format: physicochemical; details: pH 6.8
[4] = gmean of eight volunteers, 10 mg as 30 minute IV infusion
[5] = human, plasma, other: sublingual, 25 mg
[6] = individual subjects, 10 mg as 30 minute IV infusion
[7] = individual subjects, 25 mg SL wafer
[8] = median of eight volunteers, 25 mg SL

CNC1(c2ccccc2Cl)CCCCC1=O (racemic) [RS ketamine, ketamine]
Bond and Lader mood rating scales (alertness, contentedness, calmness) ([1]; 10 mg IV and 25 mg SL, 24 hr observation): no clear trends for effects
ECG, vital signs, haematology, clinical chemistry, urinalysis ([1]; healthy volunteers): no clinically relevant changes or trends for abnormalities
extrapolated portion of the AUC, AUCextr ([2]; IV 10 mg): 3-7%
time of first quantifiable plasma concentration ([2]; IV dosing 10 mg): five
extrapolated portion of the AUC, AUCextr ([2]; SL 25 mg): 2-9%
time of first quantifiable plasma concentration ([2]; SL dosing 25 mg): five
Cmax,I [2, 4]: 128.0 ng/mL
VZ [2, 4]: 237 L
MRT ([2]; human, plasma, iv, 10 mg): 3.9 h
half-life ([2]; human, plasma, iv, 10 mg): 7 h
AUC ([2]; human, plasma, iv, 10 mg, AUCINF__, gmean of eight volunteers, 10 mg as 30 minute IV infusion): 255 ng·h/mL
AUC ([2]; human, plasma, iv, 10 mg, AUCINF__, individual subjects, 10 mg as 30 minute IV infusion): 255 ng·h/mL
clearance ([2]; human, plasma, iv, 10 mg, CL, gmean of eight volunteers, 10 mg as 30 minute IV infusion): 654 mL/min
clearance ([2]; human, plasma, iv, 10 mg, CL, individual subjects, 10 mg as 30 minute IV infusion): 655 mL/min
Cmax ([2]; human, plasma, iv, 10 mg, Cmax,I, gmean of eight volunteers, 10 mg as 30 minute IV infusion): 128 ng/mL
clearance ([2]; human, plasma, iv, 10 mg, Median CL, IV dosing 10 mg): 628 mL/min
Tmax ([2]; human, plasma, iv, 10 mg, tmax,IV, individual subjects, 10 mg as 30 minute IV infusion): 0.5 h
Tmax ([2]; human, plasma, iv, 10 mg, tmax,IV, median of eight volunteers, 10 mg as 30 minute IV infusion): 0.5 h
MRT [2, 5]: 3.8 h
bioavailability [2, 5]: 23 to 38%
AUC ([2]; human, plasma, other: sublingual, 25 mg, AUCINF_, gmean of eight volunteers, 25 mg SL wafer): 185 ng·h/mL
AUC ([2]; human, plasma, other: sublingual, 25 mg, AUCINF_, individual subjects, 25 mg SL wafer): 184 ng·h/mL
Cmax ([2]; human, plasma, other: sublingual, 25 mg, Cmax,S, gmean of eight volunteers, 25 mg SL wafer): 71.1 ng/mL
Tmax ([2]; human, plasma, other: sublingual, 25 mg, tmax,SL, median of eight volunteers, 25 mg SL wafer): 0.75 h
AUCINF__ [2, 6]: 270.02 ng·h/mL and 289.22 ng·h/mL and 299.44 ng·h/mL and 261.00 ng·h/mL and 167.21 ng·h/mL and 282.73 ng·h/mL and 243.24 ng·h/mL
CL [2, 6]: 37.03 L/h and 34.58 L/h and 33.40 L/h and 38.31 L/h and 59.81 L/h and 35.37 L/h and 41.11 L/h
VZ [2, 6]: 283 L and 253 L and 300 L and 164 L and 385 L and 375 L and 126 L and 158 L
t1/2,I [2, 6]: 5.0 h and 4.7 h and 6.0 h and 3.4 h and 4.3 h and 2.5 h and 2.7 h
tmax,IV [2, 6]: 0.6 h and 0.52 h
Cmax,I ([2]; individual subjects, 10 mg as 30 minute IV infusion, plasma): 190.2 ng/mL and 124.2 ng/mL and 120.3 ng/mL and 101.8 ng/mL and 83.18 ng/mL and 81.12 ng/mL and 226.6 ng/mL and 163.2 ng/mL
bioavailability F ([2]; individual subjects, 25 mg SL vs 10 mg IV): 38% and 29% and 30% and 23% and 28% and 27%
AUCINF_ [2, 7]: 203.47 ng·h/mL and 171.90 ng·h/mL and 211.33 ng·h/mL and 186.14 ng·h/mL and 161.64 ng·h/mL and 202.89 ng·h/mL and 162.52 ng·h/mL
t1/2, [2, 7]: 3.2 h and 5.5 h and 3.5 h and 2.3 h and 4.6 h and 5.1 h and 2.9 h and 1.8 h
tmax,SL [2, 7]: 1 h and 0.58 h and 0.25 h
Cmax,S ([2]; individual subjects, 25 mg SL wafer, plasma): 78.77 ng/mL and 60.24 ng/mL and 50.02 ng/mL and 76.12 ng/mL and 51.79 ng/mL and 61.17 ng/mL and 88.76 ng/mL and 128.2 ng/mL
mean absorption time MAT ([2]; individual subjects, 25 mg SL, MRTSL−MRTIV): −1.1 hr (2×) and 0.86 hr and −0.56 hr and 0.20 hr and 0.64 hr and 1.1 hr and −0.83 hr
t1/2,I ([2]; median of eight volunteers, 10 mg as 30 minute IV infusion): 4.5 h
bioavailability F [2, 8]: 29 [27, 31] %
mean absorption time MAT [2, 8]: -0.18 h
t1/2, ([2]; median of eight volunteers, 25 mg SL wafer): 3.4 h
mean absorption time MAT, Min-Max ([2]; minimum and maximum of eight volunteers, 25 mg SL): -1.1 to 1.1 h

Cc1ncc2n1-c1ccc(Cl)cc1C(c1ccccc1F)=NC2 [midazolam powder, midazolam]
dissolution rate compared with wafer [3]: considerably slower
